According to PubChem BioAssay AID2060898 (Molecular Pharmacology Branch, DTP, NCI, 2025):

Tested on: 616215-338-R-J1-PDC complex spheroid viability
Experiment: Anticancer human tumor 616215-338-R-J1-PDC patient-derived colon adenocarcinoma cell line growth inhibition [RAS]
Settings: for IC50: curve of first compound; for viability, T/C: stronger effect = lower value
Procedure, shortened: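 Tumour cells grown as complex spheroids with HUVEC endothelial cells and mesenchymal stem cells, treated with RAS pathway inhibitor combinations. Each agent spans half-log steps from near clinical Cmax, or 10 microM where Cmax is unknown.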

[1] = second compound 0.00316 µM, first compound 0.0316 µM
[2] = second compound 0.00316 µM, first compound 0.1 µM
[3] = second compound 0.00316 µM, first compound 0.316 µM
[4] = second compound 0.00316 µM, first compound 1 µM
[5] = second compound 0.01 µM, first compound 0.0316 µM
[6] = second compound 0.01 µM, first compound 0.1 µM
[7] = second compound 0.01 µM, first compound 0.316 µM
[8] = second compound 0.01 µM, first compound 1 µM
[9] = second compound 0.0316 µM, first compound 0.0316 µM
[10] = second compound 0.0316 µM, first compound 0.1 µM
[11] = second compound 0.0316 µM, first compound 0.316 µM
[12] = second compound 0.0316 µM, first compound 1 µM
[13] = second compound 0.1 µM, first compound 0.0316 µM
[14] = second compound 0.1 µM, first compound 0.1 µM
[15] = second compound 0.1 µM, first compound 0.316 µM
[16] = second compound 0.1 µM, first compound 1 µM
[17] = second compound 0.316 µM, first compound 0.0316 µM
[18] = second compound 0.316 µM, first compound 0.1 µM
[19] = second compound 0.316 µM, first compound 0.316 µM
[20] = second compound 0.316 µM, first compound 1 µM
[21] = second compound 1 µM, first compound 0.0316 µM
[22] = second compound 1 µM, first compound 0.1 µM
[23] = second compound 1 µM, first compound 0.316 µM
[24] = second compound 1 µM, first compound 1 µM
[25] = second compound 0.00316 µM, first compound 3.16 µM
[26] = second compound 0.00316 µM, first compound 10 µM
[27] = second compound 0.01 µM, first compound 3.16 µM
[28] = second compound 0.01 µM, first compound 10 µM
[29] = second compound 0.0316 µM, first compound 3.16 µM
[30] = second compound 0.0316 µM, first compound 10 µM
[31] = second compound 0.1 µM, first compound 3.16 µM
[32] = second compound 0.1 µM, first compound 10 µM
[33] = second compound 0.316 µM, first compound 3.16 µM
[34] = second compound 0.316 µM, first compound 10 µM
[35] = second compound 1 µM, first compound 3.16 µM
[36] = second compound 1 µM, first compound 10 µM
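Also: spheroids exposed to agents for seven days before viability readout.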
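For viability, T/C in this document: 100% = DMSO vehicle control viability.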

## CCN1CCN(Cc2ccc(Nc3ncc(F)c(-c4cc(F)c5nc(C)n(C(C)C)c5c4)n3)nc2)CC1 + C=CC(=O)N1CCN(c2nc(OCC3CCCN3C)nc3c(F)c(-c4nc(N)cc(C)c4C(F)(F)F)c(Cl)cc23)C(C)C1
Second compound 0.00316 µM
  IC50: > 1 µM
Second compound 0.01 µM
  IC50: > 1 µM
Second compound 0.0316 µM
  IC50: > 1 µM
Second compound 0.1 µM
  IC50: > 1 µM
Second compound 0.316 µM
  IC50: > 1 µM
Second compound 1 µM
  IC50: > 1 µM
Second compound 0.00316 µM, first compound 0.00316 µM
  viability, T/C: 110%
Second compound 0.00316 µM, first compound 0.01 µM
  viability, T/C: 110%
[1]
  viability, T/C: 121%
[2]
  viability, T/C: 118%
[3]
  viability, T/C: 150%
[4]
  viability, T/C: 65%
Second compound 0.01 µM, first compound 0.00316 µM
  viability, T/C: 112%
Second compound 0.01 µM, first compound 0.01 µM
  viability, T/C: 120%
[5]
  viability, T/C: 114%
[6]
  viability, T/C: 123%
[7]
  viability, T/C: 145%
[8]
  viability, T/C: 56.2%
Second compound 0.0316 µM, first compound 0.00316 µM
  viability, T/C: 113%
Second compound 0.0316 µM, first compound 0.01 µM
  viability, T/C: 124%
[9]
  viability, T/C: 116%
[10]
  viability, T/C: 119%
[11]
  viability, T/C: 143%
[12]
  viability, T/C: 71.4%
Second compound 0.1 µM, first compound 0.00316 µM
  viability, T/C: 102%
Second compound 0.1 µM, first compound 0.01 µM
  viability, T/C: 102%
[13]
  viability, T/C: 118%
[14]
  viability, T/C: 117%
[15]
  viability, T/C: 141%
[16]
  viability, T/C: 64.2%
Second compound 0.316 µM, first compound 0.00316 µM
  viability, T/C: 114%
Second compound 0.316 µM, first compound 0.01 µM
  viability, T/C: 109%
[17]
  viability, T/C: 113%
[18]
  viability, T/C: 131%
[19]
  viability, T/C: 131%
[20]
  viability, T/C: 59.3%
Second compound 1 µM, first compound 0.00316 µM
  viability, T/C: 117%
Second compound 1 µM, first compound 0.01 µM
  viability, T/C: 116%
[21]
  viability, T/C: 109%
[22]
  viability, T/C: 120%
[23]
  viability, T/C: 154%
[24]
  viability, T/C: 67.7%

## Cc1nc(N2CCC3(CC2)COC(C)C3N)c(CO)nc1Sc1ccnc(N)c1Cl (stereo unspecified) + C=CC(=O)N1CCN(c2nc(OCC3CCCN3C)nc3c(F)c(-c4nc(N)cc(C)c4C(F)(F)F)c(Cl)cc23)C(C)C1
Second compound 0.00316 µM
  IC50: > 10 µM
Second compound 0.01 µM
  IC50: > 10 µM
Second compound 0.0316 µM
  IC50: > 10 µM
Second compound 0.1 µM
  IC50: > 10 µM
Second compound 0.316 µM
  IC50: > 10 µM
Second compound 1 µM
  IC50: > 10 µM
[1]
  viability, T/C: 93.3%
[2]
  viability, T/C: 101%
[3]
  viability, T/C: 125%
[4]
  viability, T/C: 95.6%
[25]
  viability, T/C: 98.1%
[26]
  viability, T/C: 84.7%
[5]
  viability, T/C: 114%
[6]
  viability, T/C: 111%
[7]
  viability, T/C: 110%
[8]
  viability, T/C: 110%
[27]
  viability, T/C: 90.2%
[28]
  viability, T/C: 83.7%
[9]
  viability, T/C: 107%
[10]
  viability, T/C: 110%
[11]
  viability, T/C: 114%
[12]
  viability, T/C: 99.3%
[29]
  viability, T/C: 109%
[30]
  viability, T/C: 80.6%
[13]
  viability, T/C: 98.7%
[14]
  viability, T/C: 113%
[15]
  viability, T/C: 115%
[16]
  viability, T/C: 119%
[31]
  viability, T/C: 97.3%
[32]
  viability, T/C: 83.2%
[17]
  viability, T/C: 105%
[18]
  viability, T/C: 99%
[19]
  viability, T/C: 129%
[20]
  viability, T/C: 102%
[33]
  viability, T/C: 106%
[34]
  viability, T/C: 73%
[21]
  viability, T/C: 97.7%
[22]
  viability, T/C: 110%
[23]
  viability, T/C: 99.7%
[24]
  viability, T/C: 109%
[35]
  viability, T/C: 89.4%
[36]
  viability, T/C: 75.4%

## NC1c2ccccc2OC12CCN(c1cnc3c(N4CCCc5ncccc54)n[nH]c3n1)CC2 (stereo unspecified) + C=CC(=O)N1CCN(c2nc(OCC3CCCN3C)nc3c(F)c(-c4nc(N)cc(C)c4C(F)(F)F)c(Cl)cc23)C(C)C1
Second compound 0.00316 µM
  IC50: > 10 µM
Second compound 0.01 µM
  IC50: > 10 µM
Second compound 0.0316 µM
  IC50: > 10 µM
Second compound 0.1 µM
  IC50: > 10 µM
Second compound 0.316 µM
  IC50: > 10 µM
Second compound 1 µM
  IC50: > 10 µM
[1]
  viability, T/C: 119%
[2]
  viability, T/C: 114%
[3]
  viability, T/C: 81.2%
[4]
  viability, T/C: 79.1%
[25]
  viability, T/C: 58.7%
[26]
  viability, T/C: 53.5%
[5]
  viability, T/C: 134%
[6]
  viability, T/C: 104%
[7]
  viability, T/C: 95.4%
[8]
  viability, T/C: 80.5%
[27]
  viability, T/C: 83%
[28]
  viability, T/C: 64.2%
[9]
  viability, T/C: 121%
[10]
  viability, T/C: 113%
[11]
  viability, T/C: 95.7%
[12]
  viability, T/C: 74.9%
[29]
  viability, T/C: 77.4%
[30]
  viability, T/C: 60.6%
[13]
  viability, T/C: 112%
[14]
  viability, T/C: 110%
[15]
  viability, T/C: 81.3%
[16]
  viability, T/C: 93.4%
[31]
  viability, T/C: 64.7%
[32]
  viability, T/C: 62.1%
[17]
  viability, T/C: 120%
[18]
  viability, T/C: 112%
[19]
  viability, T/C: 91.4%
[20]
  viability, T/C: 74.3%
[33]
  viability, T/C: 70.9%
[34]
  viability, T/C: 52.3%
[21]
  viability, T/C: 116%
[22]
  viability, T/C: 101%
[23]
  viability, T/C: 91.8%
[24]
  viability, T/C: 83.6%
[35]
  viability, T/C: 73%
[36]
  viability, T/C: 62.3%
